Source: patent US20260151467A1, “METHOD FOR TREATING CANCER” (THE CHILDREN'S MEDICAL CENTER CORPORATION, priority 2018, published 2026)

Experiments:
CCRF-CEM cells [1] = assay: Viable cell counts (trypan blue) of CCRF-CEM cells treated with asparaginase and other agents; assay type: cell-based, human
Procedure: Cells (25,000 per well) were seeded in 100 μl of complete growth medium in 96-well plates and incubated with chemotherapeutic agents or vehicle. T-ALL cells were split every 48 hours in a 1:5 ratio. Briefly, 20 μl of cells were mixed with 80 μl fresh culture medium, supplemented with vehicle or chemotherapeutic drugs at the indicated doses. AML cells were split every 72 hours as described above. Cell viability was assessed by counting viable cells based on trypan blue vital dye staining (Invitrogen), according to the manufacturer's instructions. Chemotherapeutic drugs included: PEG-asparaginase (“oncaspar”, Shire, Lexington, MA), dexamethasone (Sigma-Aldrich), vincristine (Selleckchem, Houston, TX), doxorubicin (Sigma-Aldrich), 6-mercaptopurine (Abcam, Cambridge, UK), CHIR99021 (Selleckchem), bortezomib (Selleckchem), rapamycin (Selleckchem), RAD001 (Selleckchem), AZD2014 (Selleckchem), and Wnt3A (R&D systems, Minneapolis, MN). BRD0705 and […] were synthesized as described^15. Caspase 3/7 activity was assessed using the Caspase Glo 3/7 Assay (Promega, Madison, WI) according to the manufacturer's instructions.

CCRF-CEM cells [2] = assay: Assessment of cell size by flow cytometry (FSC-H), CCRF-CEM; assay type: cell-based, human; conditions: asparaginase 10 U/L, 48 hours
Procedure: Assessment of cell size. Cells (400,000 per well) were plated in 1 ml of complete growth medium, containing a final concentration of 10 U/L asparaginase in a 24-well format. After 48 hours of treatment, forward scattering (FSC-H) was assessed by flow cytometry.

[3] = tested on: asparaginase-resistant T-ALL patient-derived xenograft; assay: T-ALL patient-derived xenograft in NRG mice, survival; assay type: in vivo, mouse
Procedure: Mice were exposed to a sub-lethal dose of radiation (4.5 Gy) and subsequently injected with human leukemia cells. All injections were performed by tail vein injection. Blood collections were performed to monitor leukemia onset in mice injected with leukemic cells, which was assessed by staining for human CD45 expression using anti-human CD45-PE-Cy7 (1:400, BD #560915) antibody staining. As soon as leukemia engraftment was confirmed based on ≥5% human leukemia cells in the peripheral blood, treatment of mice was begun. Asparaginase (1,000 U/kg) or PBS were injected by tail vein injection as a single dose on day 1 of drug treatment, and BRD0705 (15 mg/kg) or vehicle were given every 12 hours for 12 days by oral gavage. Vehicle was formulated as previously described.^15 Mice were anesthetized with isoflurane (Patterson Veterinary, Greeley, CO) prior to gavage. After start of treatment, body weight was monitored every third day. To assess bilirubin levels, mandibular blood vein collection was performed, and bilirubin levels were measured in the Boston Children's Hospital clinical laboratory. The primary endpoint of this experiment was survival. Mice were euthanized as soon as they developed weight loss greater than 15% or signs/symptoms of progressing disease. Post-mortem analysis of leukemic burden was performed by extracting bone marrow cells, which were filtered through a […] mesh filter and red blood cells were lysed using the BD Biosciences Red Blood Cell Lysis reagent (BD #555899). Isolated bone marrow cells were stained for assessment of leukemic burden using following antibodies from BD Biosciences: Anti-human CD4-APC-Cy7 (1:100, BD #561839) and anti-human CD8-PerCP-Cy5.5 (1:100, BD #560662).

HCT-15 cells [4] = assay: Chemotherapy response of colon cancer cell lines (trypan blue counts), HCT-15; assay type: cell-based, human; conditions: 10 days
Procedure: (§1) Cells (100,000 per well) were seeded in […] of complete growth medium in 12-well plates and incubated with chemotherapeutic agents or vehicle. Cells were split every 48 hours and cell viability was assessed by counting viable cells based on trypan blue vital dye staining (Invitrogen), according to the manufacturer's instructions. Chemotherapeutic drugs included: asparaginase (pegaspargase, Shire, Lexington, MA), CHIR99021 (Selleckchem), recombinant human Wnt3A protein (R&D systems, Minneapolis, MN) and recombinant human R-Spondin 3 protein (R&D systems, Minneapolis, MN). BRD0705 and BRD3731 were synthesized as described (Wagner et al., 2018). Caspase 3/7 activity was assessed using the Caspase Glo 3/7 Assay (Promega, Madison, WI) according to the manufacturer's instructions.

SW-480 cells = assay: Chemotherapy response of colon cancer cell lines (trypan blue counts), SW-480; assay type: cell-based, human; conditions: 10 days
Procedure: as §1

Rspo3 fusion organoids = assay: Chemotherapy response in mouse intestinal organoids, Rspo3 fusion; assay type: cell-based; conditions: asparaginase 100 U/L, 10 days
Procedure: (§2) For assessment of chemotherapy response in mouse intestinal organoids, Apc-deficient and Rspo3 fusion organoids were cultured in basal organoid medium (medium not containing murine Wnt3A, murine Noggin and human R-spondin1 protein). A full 0.95 cm2 well of organoids was split into new wells, aiming to obtain approximately 25 organoids per well. Organoids were split according to previously published protocols (O'Rourke et al., 2016). Matrigel and basal organoid culture medium were supplemented with vehicle or chemotherapeutic agents, and split every 48 hours. After 10 days in culture, total organoid numbers per wells were counted by light microscopy. Microscopy was performed using an 100× objective on an Axio Imager A1 microscope (Zeiss, Oberkochen, Germany), with images captured using a CV-A10 digital camera (Jai, Yokohama, Japan) and Cytovision software (Leica Biosystems, Wetzlar, Germany).
(§3) Organoids touching the edge of a well were excluded from counting. Images were taken from a representative of three independent experiments and analyzed with ImageJ Software (Schneider et al., 2012).

Apc-deficient organoids = assay: Chemotherapy response in mouse intestinal organoids, Apc-deficient; assay type: cell-based; conditions: asparaginase 100 U/L, BRD0705 1 μM or both, 10 days
Procedure: as §2, §3

HCT-15 cells [5] = assay: Assessment of cell size by flow cytometry (FSC-H), HCT-15; assay type: cell-based, human; conditions: asparaginase 100 U/L (FIG. 18A)
Procedure: […] After 48 hours of treatment, forward scatter height (FSC-H) was assessed by flow cytometry on a Beckton-Dickinson LSR-II instrument.

Rspo3 fusion tumors = assay: Subcutaneous Rspo3 fusion organoid tumors in nude mice; assay type: in vivo, mouse; conditions: single dose of asparaginase
Procedure: (§4) For implantation of APC mutant human CRC PDX, patient tumor material was collected in PBS and kept on wet ice for engraftment within 24 h after resection. Upon arrival, necrotic and supporting tissues were carefully removed using a surgical blade. Approximately 1 mm×1 mm tissue fragments were implanted subcutaneously into the flank region of male nude mice, as described (Bullman et al., 2017). For injection of intestinal organoids (Rspo3; p53; Kras, or Apc; p53; Kras), per mouse one full […] well of organoids was injected subcutaneously.
(§5) As soon as tumors reached a volume of approximately 150 mm3, treatment of mice was begun. For the APC mutant human CRC PDX, a single dose of asparaginase (1,000 U/kg) or PBS was injected by tail vein injection on day 1 of treatment, and BRD0705 (15 mg/kg) or vehicle was given every 12 hours for 21 days by oral gavage. Vehicle was formulated as previously described (Wagner et al., 2018).
(§6) After start of treatment, body weight and tumor size were evaluated every other day. Tumor size was assessed by caliper measurements and the approximate volume of the mass was calculated using the formula (l×w×w)×(π/6), where 1 is the major tumor axis and w is the minor tumor axis.

Apc-deficient tumors = assay: Subcutaneous Apc-deficient organoid tumors in nude mice; assay type: in vivo, mouse; conditions: single dose of asparaginase
Procedure: as §4, §5, §6

[6] = Body weight of nude mice injected with organoids; assay type: in vivo; conditions: single dose of asparaginase, FIG. 19A
Procedure: as §6

[7] = tested on: APC-mutant CRC patient-derived xenograft; assay: APC-mutant human CRC patient-derived xenograft in nude mice; assay type: in vivo, mouse; conditions: asparaginase 1000 U/kg×1 dose; BRD0705 every 12 hours×21 days
Procedure: as §4
As soon as tumors reached a volume of approximately 150 mm3, treatment of mice was begun. […] Vehicle was formulated as previously described (Wagner et al., 2018).
as §6

CRC = conditions: Clarkson 1970; Ohnuma 1970; Wilson 1975; cited from earlier work

## asparaginase
CCRF-CEM cells [1]; 10 U/L dose
  toxicity of asparaginase: lacked detectable toxicity
CCRF-CEM cells [1]; FIG. 5: 100 U/L asparaginase, 48 hours
  asparaginase sensitivity of the cell line (viability): asparaginase-resistant
CCRF-CEM cells [2]
  cell size (FSC-H): measurable decrease in cell size
[3]; FIG. 4D, Kaplan-Meier
  difference in survival between vehicle and monotherapy groups (log-rank): not significant
[3]; asparaginase 1,000 U/kg i.v. single dose, BRD0705 15 mg/kg oral gavage every 12 hours for 12 days
  efficacy against xenograft (survival): highly resistant
HCT-15 cells [4]
  response to asparaginase monotherapy: refractory
SW-480 cells
  response to asparaginase monotherapy: refractory
Rspo3 fusion organoids
  toxicity to organoids (viable organoid count): highly toxic
Apc-deficient organoids
  toxicity to organoids (viable organoid count): little activity
HCT-15 cells [5]
  cell size (FSC-H): significantly decreased cell size
Rspo3 fusion tumors
  therapeutic activity: significant therapeutic activity
Rspo3 fusion tumors; FIG. 16B
  disease progression (tumor volume): markedly delayed disease progression
Rspo3 fusion tumors; FIG. 16C
  tumor regression: induced tumor regression in most treated mice
Rspo3 fusion tumors; FIG. 16D
  progression-free survival: prolonged progression-free survival
Apc-deficient tumors
  effect on tumors: little effect
[6]
  weight loss: without inducing appreciable weight loss
[7]
  activity on tumor growth: no activity
CRC
  activity in unselected patients with CRC: little activity
